Measured values taken from ChEMBL document CHEMBL2203140, “Syntheses and structure-activity relationship studies of N-substituted-β-D-glucosaminides as selective cytotoxic agents” (Bioorg Med Chem Lett, 2012).
pIC50: −log10 of the molar value.

Assays:
Format in all cases: functional, cell-based
[1] = tested on: HT-1080; test: Cytotoxicity against human HT1080 cells after 48 hrs by MTT assay; details: HT-1080, 48 h
[2] = tested on: HCT-116; test: Cytotoxicity against human HCT116 cells after 48 hrs by MTT assay; details: HCT-116, 48 h
[3] = tested on: HepG2; test: Cytotoxicity against human HepG2 cells after 48 hrs by MTT assay; details: HepG2, 48 h
[4] = tested on: A549; test: Cytotoxicity against human A549 cells after 48 hrs by MTT assay; details: A549, 48 h
[5] = tested on: MCF7; test: Cytotoxicity against human MCF7 cells after 48 hrs by MTT assay; details: MCF7, 48 h
[6] = tested on: HeLa; test: Cytotoxicity against human HeLa cells after 48 hrs by MTT assay

Row | Structure (SMILES) | pIC50 [1] | pIC50 [2] | pIC50 [3] | pIC50 [4] | pIC50 [5] | pIC50 [6]
1 | C[C@@H]1CC[C@@]2(OC1)O[C@H]1C[C@H]3[C@@H]4CC=C5C[C@@H](O[C@@H]6O[C@H](CO)[C@@H](O)[C@H](O)[C@H]6NC(=O)/C=C/c6cccc(Br)c6)CC[C@]5(C)[C@H]4CC[C@]3(C)[C@H]1[C@@H]2C | < 4.30 | < 4.30 | < 4.30 | < 4.30 | < 4.30 | < 4.30
2 | C[C@@H]1CC[C@@]2(OC1)O[C@H]1C[C@H]3[C@@H]4CC=C5C[C@@H](O[C@@H]6O[C@H](CO)[C@@H](O)[C@H](O)[C@H]6NC(=O)NCc6ccccc6)CC[C@]5(C)[C@H]4CC[C@]3(C)[C@H]1[C@@H]2C | < 4.30 | < 4.30 | < 4.30 | 4.55 | 4.62 | 4.57
3 | C[C@@H]1CC[C@@]2(OC1)O[C@H]1C[C@H]3[C@@H]4CC=C5C[C@@H](O[C@@H]6O[C@H](CO)[C@@H](O)[C@H](O)[C@H]6NC(=O)NCc6ccc(F)cc6)CC[C@]5(C)[C@H]4CC[C@]3(C)[C@H]1[C@@H]2C | 4.38 | < 4.30 | < 4.30 | < 4.30 | < 4.30 | < 4.30
4 | COc1ccc(CNC(=O)N[C@H]2[C@H](O[C@H]3CC[C@@]4(C)C(=CC[C@H]5[C@@H]6C[C@@H]7O[C@]8(CC[C@@H](C)CO8)[C@@H](C)[C@@H]7[C@@]6(C)CC[C@@H]54)C3)O[C@H](CO)[C@@H](O)[C@@H]2O)cc1 | < 4.30 | < 4.30 | < 4.30 | < 4.30 | < 4.30 | < 4.30
5 | C[C@@H]1CC[C@@]2(OC1)O[C@H]1C[C@H]3[C@@H]4CC=C5C[C@@H](O[C@@H]6O[C@H](CO)[C@@H](O)[C@H](O)[C@H]6NC(=O)NC6CC6)CC[C@]5(C)[C@H]4CC[C@]3(C)[C@H]1[C@@H]2C | < 4.30 | < 4.30 | < 4.30 | < 4.30 | < 4.30 | 4.36
6 | C[C@@H]1CC[C@@]2(OC1)O[C@H]1C[C@H]3[C@@H]4CC=C5C[C@@H](O[C@@H]6O[C@H](CO)[C@@H](O)[C@H](O)[C@H]6NC(=O)NC(C)(C)C)CC[C@]5(C)[C@H]4CC[C@]3(C)[C@H]1[C@@H]2C | 4.37 | < 4.30 | < 4.30 | < 4.30 | 4.57 | 4.56
7 | CCCCCCCNC(=O)N[C@H]1[C@H](O[C@H]2CC[C@@]3(C)C(=CC[C@H]4[C@@H]5C[C@@H]6O[C@]7(CC[C@@H](C)CO7)[C@@H](C)[C@@H]6[C@@]5(C)CC[C@@H]43)C2)O[C@H](CO)[C@@H](O)[C@@H]1O | 4.37 | < 4.30 | < 4.30 | < 4.30 | < 4.30 | < 4.30
8 | C[C@@H]1CC[C@@]2(OC1)O[C@H]1C[C@H]3[C@@H]4CC=C5C[C@@H](O[C@@H]6O[C@H](CO)[C@@H](O)[C@H](O)[C@H]6NC(=O)NN6CCCCC6)CC[C@]5(C)[C@H]4CC[C@]3(C)[C@H]1[C@@H]2C | 4.45 | < 4.30 | < 4.30 | < 4.30 | < 4.30 | < 4.30
9 | C[C@@H]1CC[C@@]2(OC1)O[C@H]1C[C@H]3[C@@H]4CC=C5C[C@@H](O[C@@H]6O[C@H](CO)[C@@H](O)[C@H](O)[C@H]6NC(=S)N/N=C/c6ccccc6)CC[C@]5(C)[C@H]4CC[C@]3(C)[C@H]1[C@@H]2C | < 4.30 | 4.40 | 4.53 | 4.30 | 4.32 | 4.44
10 | COc1ccc(/C=N/NC(=S)N[C@H]2[C@H](O[C@H]3CC[C@@]4(C)C(=CC[C@H]5[C@@H]6C[C@@H]7O[C@]8(CC[C@@H](C)CO8)[C@@H](C)[C@@H]7[C@@]6(C)CC[C@@H]54)C3)O[C@H](CO)[C@@H](O)[C@@H]2O)cc1 | < 4.30 | 4.42 | 4.55 | 4.43 | < 4.30 | 4.46
11 | C[C@@H]1CC[C@@]2(OC1)O[C@H]1C[C@H]3[C@@H]4CC=C5C[C@@H](O[C@@H]6O[C@H](CO)[C@@H](O)[C@H](O)[C@H]6NC(=S)N/N=C/c6cc(C(F)(F)F)cc(C(F)(F)F)c6)CC[C@]5(C)[C@H]4CC[C@]3(C)[C@H]1[C@@H]2C | < 4.30 | < 4.30 | < 4.30 | < 4.30 | < 4.30 | < 4.30
12 | COc1ccc(OC)c(/C=C/C(=O)N[C@H]2[C@H](O[C@H]3CC[C@@]4(C)C(=CC[C@H]5[C@@H]6C[C@@H]7O[C@]8(CC[C@@H](C)CO8)[C@@H](C)[C@@H]7[C@@]6(C)CC[C@@H]54)C3)O[C@H](CO)[C@@H](O)[C@@H]2O)c1 | < 4.30 | 4.45 | 4.50 | 4.32 | < 4.30 | 4.49
13 | COc1ccc(/C=C/C(=O)N[C@H]2[C@H](O[C@H]3CC[C@@]4(C)C(=CC[C@H]5[C@@H]6C[C@@H]7O[C@]8(CC[C@@H](C)CO8)[C@@H](C)[C@@H]7[C@@]6(C)CC[C@@H]54)C3)O[C@H](CO)[C@@H](O)[C@@H]2O)cc1OC | < 4.30 | 4.54 | 4.59 | 4.52 | 4.50 | 4.58
14 | COc1cc(/C=C/C(=O)N[C@H]2[C@H](O[C@H]3CC[C@@]4(C)C(=CC[C@H]5[C@@H]6C[C@@H]7O[C@]8(CC[C@@H](C)CO8)[C@@H](C)[C@@H]7[C@@]6(C)CC[C@@H]54)C3)O[C@H](CO)[C@@H](O)[C@@H]2O)cc(OC)c1OC | < 4.30 | < 4.30 | < 4.30 | < 4.30 | < 4.30 | < 4.30
15 | C[C@@H]1CC[C@@]2(OC1)O[C@H]1C[C@H]3[C@@H]4CC=C5C[C@@H](O[C@@H]6O[C@H](CO)[C@@H](O)[C@H](O)[C@H]6NC(=O)/C=C/c6cccc(Cl)c6)CC[C@]5(C)[C@H]4CC[C@]3(C)[C@H]1[C@@H]2C | < 4.30 | < 4.30 | < 4.30 | < 4.30 | < 4.30 | < 4.30
16 | C[C@@H]1CC[C@@]2(OC1)O[C@H]1C[C@H]3[C@@H]4CC=C5C[C@@H](O[C@@H]6O[C@H](CO)[C@@H](O)[C@H](O)[C@H]6NC(=O)/C=C/c6ccccc6[N+](=O)[O-])CC[C@]5(C)[C@H]4CC[C@]3(C)[C@H]1[C@@H]2C | 4.44 | < 4.30 | < 4.30 | < 4.30 | < 4.30 | < 4.30
17 | CC(=O)N[C@H]1[C@H](O[C@H]2CC[C@@]3(C)C(=CC[C@H]4[C@@H]5C[C@@H]6O[C@]7(CC[C@@H](C)CO7)[C@@H](C)[C@@H]6[C@@]5(C)CC[C@@H]43)C2)O[C@H](CO)[C@@H](O)[C@@H]1O | < 4.30 | < 4.30 | < 4.30 | < 4.30 | – | –
18 | O=c1[nH]cc(F)c(=O)[nH]1 [FLUOROURACIL] | 4.82 | 4.44 | 4.29 | – | 4.10 | 4.20
